Data taken from US20260125382A1, “COMPOUNDS FOR INHIBITING OR DEGRADING CDK2 AND/OR CDK9 AND MEDICINAL USE THEREOF” (KOREA RESEARCH INSTITUTE OF CHEMICAL TECHNOLOGY, priority 2022, published 2026).

Assays:
CDK2/cyclin A = biological target: T1, CDK2/cyclin A (Homo sapiens, UniProt P24941); experiment: CDK protein inhibition, KINOMEscan (Eurofins), CDK2/cyclin A; format: binding; settings: 1 μM
T1 construct: purchased Eurofins Scientific

CDK2 = biological target: T2, CDK2 (Homo sapiens, UniProt P24941); experiment: CDK protein degradation activity (Western blotting), CDK2; format: cell-based; settings: MDA-MB-231 cells, 16 hours, Western blot
T2 construct: endogenous in cells; host or cells: MDA-MB-231
Outline: (§1)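 CDK2 and CDK9 protein levels measured by Western blot with densitometry, using tubulin as loading reference. Cells were MDA-MB-231, exposed for 16 h to 100 nM, 1 μM or 10 μM compound or to DMSO.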

CDK9 = biological target: T3, CDK9 (Homo sapiens, UniProt P50750); experiment: CDK protein degradation activity (Western blotting), CDK9; format: cell-based; settings: MDA-MB-231 cells, 16 hours, Western blot
T3 construct: endogenous in cells; host or cells: MDA-MB-231
T3 sequence (P50750 whole entry): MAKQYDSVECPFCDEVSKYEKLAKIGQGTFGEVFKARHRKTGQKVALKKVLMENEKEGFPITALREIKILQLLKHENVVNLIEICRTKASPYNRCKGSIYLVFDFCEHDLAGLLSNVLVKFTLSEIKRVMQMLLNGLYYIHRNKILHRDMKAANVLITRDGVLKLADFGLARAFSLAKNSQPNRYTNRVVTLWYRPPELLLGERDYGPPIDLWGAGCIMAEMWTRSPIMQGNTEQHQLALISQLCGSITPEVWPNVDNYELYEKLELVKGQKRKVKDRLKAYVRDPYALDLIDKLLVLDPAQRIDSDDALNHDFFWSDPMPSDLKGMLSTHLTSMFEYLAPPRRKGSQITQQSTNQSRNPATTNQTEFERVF
Outline: as §1

Row | SMILES | CDK2/cyclin A inhibition (%) (at concentration of 1 μM) (CDK2/cyclin A) | Enzyme degradation CDK2 (% remaining) @ 0.1 μM (CDK2) | Enzyme degradation CDK2 (% remaining) @ 1 μM (CDK2) | Enzyme degradation CDK2 (% remaining) @ 10 μM (CDK2) | Enzyme degradation CDK9 (% remaining) @ 0.1 μM (CDK9) | Enzyme degradation CDK9 (% remaining) @ 1 μM (CDK9) | Enzyme degradation CDK9 (% remaining) @ 10 μM (CDK9)
1 | Cc1cccc(C(=O)NC2CC(n3cnc4c(NCC5CCN(C(=O)CCCCCNC(=O)CNc6cccc7c6C(=O)N([C@@H]6CCC(=O)NC6=O)C7=O)CC5)ncnc43)C2)n1 (stereo partly drawn) [Compound 2, N-((1r,3r)-3-(6-(((1-(6-(2-((2-(2,6-dioxopiperidin-3-yl)-1,3-dioxoisoindolin-4-yl)amino)acetamido)hexanoyl)piperidin-4-yl)methyl)amino)-9H-purin-9-yl)cyclobutyl)-6-methylpicolinamide] | 84% |  |  |  |  |  | 
2 | Cc1cccc(C(=O)NC2CC(n3cnc4c(NCC5CCN(C(=O)CCCCCNc6cccc7c6C(=O)N([C@@H]6CCC(=O)NC6=O)C7=O)CC5)ncnc43)C2)n1 (stereo partly drawn) [Compound 66, N-((1r,3r)-3-(6-(((1-(6-((2-(2,6-dioxopiperidin-3-yl)-1,3-dioxoisoindolin-4-yl)amino)hexanoyl)piperidin-4-yl)methyl)amino)-9H-purin-9-yl)cyclobutyl)-6-methylpicolinamide] | 78% |  |  |  |  |  | 
3 | Cc1cccc(C(=O)NC2CC(n3cnc4c(NC5CCN(C(=O)CCCCCNC(=O)CNc6cccc7c6C(=O)N([C@@H]6CCC(=O)NC6=O)C7=O)CC5)ncnc43)C2)n1 (stereo partly drawn) [Compound 1, N-((1r,3r)-3-(6-((1-(6-(2-((2-(2,6-dioxopiperidin-3-yl)-1,3-dioxoisoindolin-4-yl)amino)acetamido)hexanoyl)piperidin-4-yl)amino)-9H-purin-9-yl)cyclobutyl)-6-methylpicolinamide] | 77% |  |  |  |  |  | 
4 | Cc1cccc(C(=O)NC2CC(n3cnc4c(NC5CCN(C(=O)CCCCCNC(=O)COc6ccc7c(c6)C(=O)N([C@@H]6CCC(=O)NC6=O)C7=O)CC5)ncnc43)C2)n1 (stereo partly drawn) [Compound 3, N-((1r,3r)-3-(6-((1-(6-(2-((2-(2,6-dioxopiperidin-3-yl)-1,3-dioxoisoindolin-5-yl)oxy)acetamido)hexanoyl)piperidin-4-yl)amino)-9H-purin-9-yl)cyclobutyl)-6-methylpicolinamide] | 84% |  |  |  |  |  | 
5 | Cc1cccc(C(=O)NC2CC(n3cnc4c(NCC5CCN(C(=O)CCCCCNC(=O)COc6cccc7c6C(=O)N([C@@H]6CCC(=O)NC6=O)C7=O)CC5)ncnc43)C2)n1 (stereo partly drawn) [Compound 64, N-((1r,3r)-3-(6-(((1-(6-(2-((2-(2,6-dioxopiperidin-3-yl)-1,3-dioxoisoindolin-4-yl)oxy)acetamido)hexanoyl)piperidin-4-yl)methyl)amino)-9H-purin-9-yl)cyclobutyl)-6-methylpicolinamide] | 85% |  |  |  |  |  | 
6 | Cc1cccc(C(=O)NC2CC(n3cnc4c(NCC5CCN(C(=O)CCCCCNC(=O)CNc6cccc7c6C(=O)N([C@@H]6CCC(=O)NC6=O)C7=O)CC5)ncnc43)C2)n1 (stereo partly drawn) [Compound 62, N-((1r,3r)-3-(6-(((1-(6-(2-((2-(2,6-dioxopiperidin-3-yl)-1,3-dioxoisoindolin-4-yl)amino)acetamido)hexanoyl)piperidin-4-yl)methyl)amino)-9H-purin-9-yl)cyclobutyl)-6-methylpicolinamide] | 89% |  |  |  |  |  | 
7 | Cc1cccc(C(=O)NC2CC(n3cnc4c(NC5CCN(C(=O)CCCCCNC(=O)COc6cccc7c6C(=O)N([C@@H]6CCC(=O)NC6=O)C7=O)CC5)ncnc43)C2)n1 (stereo partly drawn) [Compound 4, N-((1r,3r)-3-(6-((1-(6-(2-((2-(2,6-dioxopiperidin-3-yl)-1,3-dioxoisoindolin-4-yl)oxy)acetamido)hexanoyl)piperidin-4-yl)amino)-9H-purin-9-yl)cyclobutyl)-6-methylpicolinamide] | 84% |  |  |  |  |  | 
8 | Cc1cccc(C(=O)NC2CC(n3cnc4c(NC5CCN(C(=O)COCCOCCNC(=O)COc6cccc7c6C(=O)N([C@H]6CCC(=O)NC6=O)C7=O)CC5)ncnc43)C2)n1 (stereo partly drawn) [Compound 8, N-((1s,3s)-3-(6-((1-(2-(2-(2-(2-((2-(2,6-dioxopiperidin-3-yl)-1,3-dioxoisoindolin-4-yl)oxy)acetamido)ethoxy)ethoxy)acetyl)piperidin-4-yl)amino)-9H-purin-9-yl)cyclobutyl)-6-methylpicolinamide] | 89% |  |  |  |  |  | 
9 | Cc1cccc(C(=O)NC2CC(n3cnc4c(NC5CCN(C(=O)COCCOCCNC(=O)COc6ccc7c(c6)C(=O)N([C@H]6CCC(=O)NC6=O)C7=O)CC5)ncnc43)C2)n1 (stereo partly drawn) [Compound 7, N-((1s,3s)-3-(6-((1-(2-(2-(2-(2-((2-(2,6-dioxopiperidin-3-yl)-1,3-dioxoisoindolin-5-yl)oxy)acetamido)ethoxy)ethoxy)acetyl)piperidin-4-yl)amino)-9H-purin-9-yl)cyclobutyl)-6-methylpicolinamide] | 94% |  |  |  |  |  | 
10 | O=C1CC[C@H](N2C(=O)c3cccc(NCC(=O)N4CCN(CCCN5CCN(c6ccc(Nc7ncnc8c7ncn8[C@H]7C[C@@H](NC(=O)Cc8ccccc8)C7)cc6)CC5)CC4)c3C2=O)C(=O)N1 [Compound 231, N-((1s,3s)-3-(6-((4-(4-(3-(4-((2-(2,6-dioxopiperidin-3-yl)-1,3-dioxoisoindolin-4-yl)glycyl)piperazin-1-yl)propyl)piperazin-1-yl)phenyl)amino)-9H-purin-9-yl)cyclobutyl)-2-phenylacetamide] |  | 50% | 60% | 40% | 20% | 0% | 0%
11 | O=C1CCC(N2C(=O)c3cccc(NCC(=O)N4CCC5(CC4)CC(N4CCC(c6ccc(Nc7ncnc8c7ncn8[C@H]7C[C@@H](NC(=O)Cc8ccccc8)C7)cc6)CC4)C5)c3C2=O)C(=O)N1 (stereo partly drawn) [Compound 294, N-((1s,3s)-3-(6-((4-(1-(7-((2-(2,6-dioxopiperidin-3-yl)-1,3-dioxoisoindolin-4-yl)glycyl)-7-azaspiro[3.5]nonan-2-yl)piperidin-4-yl)phenyl)amino)-9H-purin-9-yl)cyclobutyl)-2-phenylacetamide] |  | 10/10/10% | 10/10/10% | 10/10/10% | 0/0/0% | 0/0/0% | 0/0/0%
12 | O=C1CC[C@H](N2C(=O)c3cccc(OCC(=O)N4CCC(OCCN5CCN(c6ccc(Nc7ncnc8c7ncn8C7CC(NC(=O)Cc8ccccc8)C7)cc6)CC5)CC4)c3C2=O)C(=O)N1 (stereo partly drawn) [Compound 246, N-((1s,3s)-3-(6-((4-(4-(2-((1-(2-((2-(2,6-dioxopiperidin-3-yl)-1,3-dioxoisoindolin-4-yl)oxy)acetyl)piperidin-4-yl)oxy)ethyl)piperazin-1-yl)phenyl)amino)-9H-purin-9-yl)cyclobutyl)-2-phenylacetamide] |  | 60% | 40% | 40% | 80% | 30% | 0%
13 | O=C1CCC(c2ccc(OCC(=O)N3CC(CN4CCC5(CC4)CC(N4CCN(c6ccc(Nc7ncnc8c7ncn8[C@H]7C[C@@H](NC(=O)Cc8ccccc8)C7)cc6)CC4)C5)C3)cc2)C(=O)N1 (stereo partly drawn) [Compound 275, N-((1s,3s)-3-(6-((4-(4-(7-((1-(2-(4-(2,6-dioxopiperidin-3-yl)phenoxy)acetyl)azetidin-3-yl)methyl)-7-azaspiro[3.5]nonan-2-yl)piperazin-1-yl)phenyl)amino)-9H-purin-9-yl)cyclobutyl)-2-phenylacetamide] |  | 80% | 60% | 60% | 70% | 30% | 0%
14 | Cc1cccc(C(=O)N[C@H]2C[C@@H](n3cnc4c(NCc5cccc(OCCCN6CCN(C(=O)COc7cccc8c7C(=O)N([C@H]7CCC(=O)NC7=O)C8=O)CC6)c5)ncnc43)C2)n1 [Compound 101, N-((1s,3s)-3-(6-((3-(3-(4-(2-((2-(2,6-dioxopiperidin-3-yl)-1,3-dioxoisoindolin-4-yl)oxy)acetyl)piperazin-1-yl)propoxy)benzyl)amino)-9H-purin-9-yl)cyclobutyl)-6-methylpicolinamide] |  | 70% | 50% | 40% | 80% | 30% | 30%
15 | O=C1CC[C@H](N2C(=O)c3cc(F)c(N4CCN(CC5CCN(c6ccc(Nc7ncnc8c7ncn8C7CC(NC(=O)c8c(Cl)cccc8Cl)C7)cc6)CC5)CC4)cc3C2=O)C(=O)N1 (stereo partly drawn) [Compound 301, 2,6-dichloro-N-((1s,3s)-3-(6-((4-(4-((4-(2-(2,6-dioxopiperidin-3-yl)-6-fluoro-1,3-dioxoisoindolin-5-yl)piperazin-1-yl)methyl)piperidin-1-yl)phenyl)amino)-9H-purin-9-yl)cyclobutyl)benzamide] |  | 30% | 20% | 10% | 70% | 0% | 0%
